Assay results: patent US11786606B2, “Site-specific quantitation of drug conjugations” (Regeneron Pharmaceuticals, Inc., priority 2019, dated 2023)

Target: T1, papain (Carica papaya, UniProt P00784)
T1 sequence (P00784 134-345): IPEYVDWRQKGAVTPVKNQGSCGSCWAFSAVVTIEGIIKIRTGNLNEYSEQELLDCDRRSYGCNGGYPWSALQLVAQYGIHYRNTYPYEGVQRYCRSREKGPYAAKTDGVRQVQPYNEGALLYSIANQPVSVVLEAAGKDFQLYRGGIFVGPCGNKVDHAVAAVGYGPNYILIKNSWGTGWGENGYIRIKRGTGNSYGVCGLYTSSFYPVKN
Experiment: Papain digestion to remove drug payloads from ADC linkers, monitored by LC-MS peak areas of surrogate peptides
Format: biochemical
Conditions: papain to substrate ratio 1:200; peak areas of peptides containing cleaved linker
Description: According to the concentration of ADC samples, transfer 25 μg of each ADC sample to a new microcentrifuge tube and add water to a total volume of 10 μL. Dilute 20 uL of papain suspension (10 mg/mL) with 180 uL of papain digestion buffer, incubate at 37° C. for 30 min. Dilute 30 uL of papain (nominal concentration of 1 mg/mL) with 120 uL of activation buffer to a nominal concentration of 0.2 mg/mL. Measure papain concentration with UV (ultra-violate) measurement at 280 nm and 320 nm using papain activation buffer as the blank buffer. Dilute activated papain to a final concentration of 0.1 mg/mL with papain activation buffer. Add 1.25 uL of 0.1 mg/mL papain solution (enzyme:substrate ratio is 1:200) to intact ADC, incubate at 37° C. for 1 h. Add 0.5 μL of 0.1 M TCEP-HCl to each sample. Vortex the samples for 3 seconds, and then spin down the samples using a Minicentrifuge for 3 seconds. Incubate samples at 95° C. for 20 minutes with shaking at 800 rpm in a thermomixer. Following incubation, cool down the samples to room temperature for 5 minutes. Spin down the condensation using a Minicentrifuge for 3 seconds. Add 6 μL of 8 M urea in 1 M Tris-HCl, pH 7.5 to each sample. […]
Papain was used to remove the payloads of MAB1-LK1 ADCs. […] Two tryptic peptides, e.g., SCDK (serine-cysteine-aspartic acid-lysine) (SEQ ID NO: 7) and GEC (glycine-glutamic acid-cysteine), were analyzed using LC-MS. […]

Substance	incubation time for completion of papain digestion to remove drug payloads (cleaved linker monitored)
mal-amido-PEG8-VA-PABA [LK1]	one
mal-amido-Val-Cit-PABA [LK3]	one
